Experimental findings from patent publication US10968225B2, “Compounds and compositions for the treatment of cystic fibrosis” (Fondazione Istituto Italiano Di Tecnologia, priority 2017, dated 2021) are described below.

Each structure is given as a SMILES string. Counter-ions that a name gives are not always drawn. A value given as a limit tells only on which side of the number the result lay.

As usually defined, the EC50 is the midpoint of the concentration-response curve.

In this experiment the target is T1, mutant CFTR (Homo sapiens, UniProt P13569, DEL508-508).
T1 construct: expressed in transfected cells
T1 sequence (P13569 with tags, fused parts or gaps DEL508-508): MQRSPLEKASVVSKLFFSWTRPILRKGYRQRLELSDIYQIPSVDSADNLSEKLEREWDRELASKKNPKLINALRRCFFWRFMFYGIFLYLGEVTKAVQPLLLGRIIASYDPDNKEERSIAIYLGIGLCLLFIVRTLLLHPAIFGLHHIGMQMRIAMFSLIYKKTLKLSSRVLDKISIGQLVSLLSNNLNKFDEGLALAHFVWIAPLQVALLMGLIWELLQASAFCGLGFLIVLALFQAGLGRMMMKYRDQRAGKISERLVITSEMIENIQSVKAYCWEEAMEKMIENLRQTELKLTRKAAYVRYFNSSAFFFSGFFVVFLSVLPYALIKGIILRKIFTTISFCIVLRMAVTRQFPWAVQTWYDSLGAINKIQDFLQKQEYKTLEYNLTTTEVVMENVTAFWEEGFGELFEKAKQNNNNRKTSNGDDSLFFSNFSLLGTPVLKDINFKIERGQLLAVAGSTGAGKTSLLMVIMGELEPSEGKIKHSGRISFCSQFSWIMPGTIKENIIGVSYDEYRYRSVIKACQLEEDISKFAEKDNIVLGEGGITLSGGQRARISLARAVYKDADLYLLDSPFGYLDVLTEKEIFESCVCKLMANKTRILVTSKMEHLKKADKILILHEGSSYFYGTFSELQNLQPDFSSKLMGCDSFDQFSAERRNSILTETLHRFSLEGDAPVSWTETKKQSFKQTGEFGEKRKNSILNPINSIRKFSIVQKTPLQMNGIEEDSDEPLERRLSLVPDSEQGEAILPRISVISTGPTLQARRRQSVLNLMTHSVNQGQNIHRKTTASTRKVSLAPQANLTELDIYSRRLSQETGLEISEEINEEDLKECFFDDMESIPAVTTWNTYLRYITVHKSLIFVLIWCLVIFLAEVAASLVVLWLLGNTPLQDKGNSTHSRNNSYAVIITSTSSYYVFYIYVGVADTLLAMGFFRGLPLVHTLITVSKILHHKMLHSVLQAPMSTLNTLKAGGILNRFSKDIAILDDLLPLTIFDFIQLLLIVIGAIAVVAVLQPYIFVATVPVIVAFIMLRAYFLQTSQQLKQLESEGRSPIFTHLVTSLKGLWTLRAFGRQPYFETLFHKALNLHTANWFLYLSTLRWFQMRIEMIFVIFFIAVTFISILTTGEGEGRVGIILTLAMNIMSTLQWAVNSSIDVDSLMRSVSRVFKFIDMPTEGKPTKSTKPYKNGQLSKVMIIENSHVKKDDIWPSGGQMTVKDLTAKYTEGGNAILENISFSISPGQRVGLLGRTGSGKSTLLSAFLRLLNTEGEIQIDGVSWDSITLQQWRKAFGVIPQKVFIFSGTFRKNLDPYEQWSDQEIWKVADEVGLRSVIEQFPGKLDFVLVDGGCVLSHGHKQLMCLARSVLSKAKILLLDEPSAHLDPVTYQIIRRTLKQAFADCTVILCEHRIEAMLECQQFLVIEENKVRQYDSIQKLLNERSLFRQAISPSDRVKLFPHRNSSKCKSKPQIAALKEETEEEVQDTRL
Put plainly: Fluorescence (HS-YFP) assay for CFTR activity, corrector assay. In kind it is cell-based. The note with it: CFBE41o- and FRT cells with stable expression of mutant CFTR, read-out: activity (EC50).
`CN(C(=O)c1cccc(-n2nc(C(F)(F)F)c3c2CC2CCC3N2)c1)c1ccc2c(c1)OCO2` (racemic) [Compound 022, N-(Benzo[d][1,3]dioxol-5-yl)-N-methyl-3-(3-(trifluoromethyl)-5,6,7,8-tetrahydro-4,7-epiminocyclohepta[c]pyrazol-1(4H)-yl)benzamide hydrochloride]: the concentration for a half-maximal effect (EC50) is under 1 µM.

Consider `CN(C(=O)c1cccc(-n2nc(C(F)(F)F)c3c2CC2CCC3N2C)c1)c1ccc2c(c1)OCO2` (racemic) [Compound 023, N-(Benzo[d][1,3]dioxol-5-yl)-N-methyl-3-(9-methyl-3-(trifluoromethyl)-5,6,7,8-tetrahydro-4,7-epiminocyclohepta [c]pyrazol-1(4H)-yl)benzamide], for which the concentration giving a half-maximal response (EC50) is under 1 µM.

On to `CCC(C)N1CCc2c(c(C(F)(F)F)nn2-c2cccc(C(=O)N(C)c3ccc4c(c3)OCO4)c2)C1` (racemic) [Compound 024, N-(1,3-Benzodioxol-5-yl)-N-methyl-3-[5-sec-butyl-3-(trifluoromethyl)-6,7-dihydro-4H-pyrazolo[4,3-c]pyridin-1-yl]benzamide], for which the EC50 was under 1 µM.

Consider `CN(C(=O)c1cccc(-n2nc(C(F)(F)F)c3c2C(Oc2cncc(C(=O)O)c2)COC3)c1)c1ccc2c(c1)OC(F)(F)O2` (racemic) [Compound 210, 5-[[1-[3-[(2,2-Difluoro-1,3-benzodioxol-5-yl)-methyl-carbamoyl]phenyl]-3-(trifluoromethyl)-6,7-dihydro-4H-pyrano[4,3-c]pyrazol-7-yl]oxy]pyridine-3-carboxylic acid], for which the concentration for a half-maximal effect (EC50) is 1 to 2 µM.

As for `CN(C(=O)c1cccc(-n2nc(C(F)(F)F)c3c2C(Oc2ccc(C(=O)O)cn2)COC3)c1)c1ccc2c(c1)OC(F)(F)O2` (racemic) [Compound 213, 6-[[1-[3-[(2,2-Difluoro-1,3-benzodioxol-5-yl)-methyl-carbamoyl]phenyl]-3-(trifluoromethyl)-6,7-dihydro-4H-pyrano[4,3-c]pyrazol-7-yl]oxy]pyridine-3-carboxylic acid], the EC50 is under 1 µM.

As for `CN(C(=O)c1cccc(-n2nc(C(F)(F)F)c3c2C(Oc2ccc(C(=O)O)cc2)CCC3)c1)c1cnc(OC(F)F)nc1` (racemic) [Compound 219, 4-[[1-[3-[[2-(Difluoromethoxy)pyrimidin-5-yl]-methyl-carbamoyl]phenyl]-3-(trifluoromethyl)-4,5,6,7-tetrahydroindazol-7-yl]oxy]benzoic acid], the EC50 fell in the range of 1 to 2 µM.

`CN(C(=O)c1cccc(-n2nc(C(F)(F)F)c3c2C(Oc2cc(C(=O)O)ccn2)COC3)c1)c1ccc2c(c1)OC(F)(F)O2` (racemic) [Compound 231, 2-[[1-[3-[(2,2-Difluoro-1,3-benzodioxol-5-yl)-methyl-carbamoyl]phenyl]-3-(trifluoromethyl)-6,7-dihydro-4H-pyrano[4,3-c]pyrazol-7-yl]oxy]pyridine-4-carboxylic acid]: the EC50 is under 1 µM.

On to `CN(C(=O)c1cccc(-n2nc(C(F)F)c3c2C(Oc2ccc(C(=O)O)cc2)CCC3)c1)c1ccc2c(c1)OC(F)(F)O2` (racemic) [Compound 254, (rac)-4-[[1-[3-[(2,2-difluoro-1,3-benzodioxol-5-yl)-methyl-carbamoyl]phenyl]-3-(difluoromethyl)-4,5,6,7-tetrahydroindazol-7-yl]oxy]benzoic acid], for which the EC50 is under 1 µM.

Regarding `CN(C(=O)c1cccc(-n2nc(C(F)(F)F)c3c2C(Oc2ccc(C(=O)O)cc2)CCC3)c1)c1cnc2c(c1)CCC2` (racemic) [Compound 258, (rac)-4-[[1-[3-[6,7-dihydro-5H-Cyclopenta[b]pyridin-3-yl(methyl)carbamoyl]phenyl]-3-(trifluoromethyl)-4,5,6,7-tetrahydroindazol-7-yl]oxy]benzoic acid], the EC50 is under 1 µM.

On to `CN(C(=O)c1cccc(-n2nc(C(F)(F)F)c3c2C(Oc2ccc(C(=O)O)cc2)CCC3)c1)c1cnc2c(c1)OCC2` (racemic) [Compound 259, (rac)-4-[[1-[3-[2,3-Dihydrofuro[3,2-b]pyridin-6-yl(methyl)carbamoyl]phenyl]-3-(trifluoromethyl)-4,5,6,7-tetrahydroindazol-7-yl]oxy]benzoic acid], for which the EC50 was under 1 µM.

In the case of `CN(C(=O)c1cccc(-n2nc(C(F)(F)F)c3c2C(Oc2ccc(C(=O)O)cc2)CCC3)c1)c1cnc2c(c1)COC2` (racemic) [Compound 260, (rac)-4-[[1-[3-[5,7-Dihydrofuro[3,4-b]pyridin-3-yl(methyl)carbamoyl]phenyl]-3-(trifluoromethyl)-4,5,6,7-tetrahydroindazol-7-yl]oxy]benzoic acid], the half-maximal effective concentration (EC50) lay in the range of 1 to 2 µM.

Regarding `CN(C(=O)c1cccc(-n2nc(C(F)(F)F)c3c2C(Oc2ccc(C(=O)O)cc2)CCC3)c1)c1ccc2c(c1)OCC2` (racemic) [Compound 261, (rac)-4-[[1-[3-[2,3-Dihydrobenzofuran-6-yl(methyl)carbamoyl]phenyl]-3-(trifluoromethyl)-4,5,6,7-tetrahydroindazol-7-yl]oxy]benzoic acid], the half-maximal effective concentration (EC50) is under 1 µM.

On to `CN(C(=O)c1cccc(-n2nc(C(F)(F)F)c3c2C(Oc2ccc(C(=O)O)cc2)COC3)c1)c1cnc2c(c1)OCC2` (racemic) [Compound 262, 4-[[1-[3-[2,3-Dihydrofuro[3,2-b]pyridin-6-yl(methyl)carbamoyl]phenyl]-3-(trifluoromethyl)-6,7-dihydro-4H-pyrano[4,3-c]pyrazol-7-yl]oxy]benzoic acid], for which the EC50 is 1 to 2 µM.

Take `CN(C(=O)c1cccc(-n2nc(C(F)F)c3c2C(Oc2ccc(C(=O)O)cc2)COC3)c1)c1ccc2c(c1)OC(F)(F)O2` (racemic) [Compound 263, 4-[[1-[3-[(2,2-difluoro-1,3-benzodioxol-5-yl)-methyl-carbamoyl]phenyl]-3-(difluoromethyl)-6,7-dihydro-4H-pyrano[4,3-c]pyrazol-7-yl]oxy]benzoic acid]: the EC50 is under 1 µM.

In the case of `CN(C(=O)c1cccc(-n2nc(C(F)(F)F)c3c2C(Oc2ccc(C(=O)O)cc2)COC3)c1)c1ccc2c(c1)OCC2` (racemic) [Compound 265, 4-[[1-[3-[2,3-Dihydrobenzofuran-6-yl(methyl)carbamoyl]phenyl]-3-(trifluoromethyl)-6,7-dihydro-4H-pyrano[4,3-c]pyrazol-7-yl]oxy]benzoic acid], the 50% effective concentration (EC50) was under 1 µM.

For the compound `CN(C(=O)c1cccc(-n2nc(C(F)(F)F)c3c2C(Oc2ccc(C(=O)O)cc2)CCC3)c1)c1cccc(OC(F)F)c1` (racemic) [Compound 266, 4-[[1-[3-[[3-(Difluoromethoxy)phenyl]-methyl-carbamoyl]phenyl]-3-(trifluoromethyl)-4,5,6,7-tetrahydroindazol-7-yl]oxy]benzoic acid], the EC50 lay in the range of 1 to 2 µM.

Regarding `CN(C(=O)c1cccc(-n2nc(C(F)(F)F)c3c2C(Oc2ccc(C(=O)O)cc2)CCC3)c1)c1cncc(OC(F)F)c1` (racemic) [Compound 267, 4-[[1-[3-[[5-(Difluoromethoxy)-3-pyridyl]-methyl-carbamoyl]phenyl]-3-(trifluoromethyl)-4,5,6,7-tetrahydroindazol-7-yl]oxy]benzoic acid], the EC50 was 1 to 2 µM.

Regarding `CN(C(=O)c1cccc(-n2nc(C(F)(F)F)c3c2C(Oc2ccc(C(=O)O)cc2)CCC3)c1)c1ccnc(OC(F)F)c1` (racemic) [Compound 268], the concentration giving a half-maximal response (EC50) is under 1 µM.

On to `Cc1nc2ncc(N(C)C(=O)c3cccc(-n4nc(C(F)(F)F)c5c4C(Oc4ccc(C(=O)O)cc4)COC5)c3)cc2o1` (racemic) [Compound 269, 4-[[1-[3-[Methyl-(2-methyloxazolo[4,5-b]pyridin-6-yl)carbamoyl]phenyl]-3-(trifluoromethyl)-6,7-dihydro-4H-pyrano[4,3-c]pyrazol-7-yl]oxy]benzoic acid], for which the concentration giving a half-maximal response (EC50) was under 1 µM.

With `CN(C(=O)c1cccc(-n2nc(C(F)(F)F)c3c2C(Oc2ccc(C(=O)O)cc2)COC3)c1)c1ccnc(OC(F)F)c1` (racemic) [Compound 270, 4-[[1-[3-[[2-(Difluoromethoxy)-4-pyridyl]-methyl-carbamoyl]phenyl]-3-(trifluoromethyl)-6,7-dihydro-4H-pyrano[4,3-c]pyrazol-7-yl]oxy]benzoic acid], the EC50 is under 1 µM.

Turning to `CN(C(=O)c1cccc(-n2nc(C(F)(F)F)c3c2C(Oc2ccc(C(=O)O)cc2)CNC3)c1)c1ccc2c(c1)OC(F)(F)O2` (racemic) [Compound 273, 4-[[1-[3-[(2,2-Difluoro-1,3-benzodioxol-5-yl)-methyl-carbamoyl]phenyl]-3-(trifluoromethyl)-4,5,6,7-tetrahydropyrazolo[4,3-c]pyridin-7-yl]oxy]benzoic acid hydrochloride], the EC50 is under 1 µM.

Regarding `CN(C(=O)c1cccc(-n2nc(C(F)(F)F)c3c2C(Oc2ccc(C(=O)O)cc2)COC3)c1)c1cnc2c(c1)CCC2` (racemic) [Compound 281, 4-[[1-[3-[6,7-Dihydro-5H-cyclopenta[b]pyridin-3-yl(methyl)carbamoyl]phenyl]-3-(trifluoromethyl)-6,7-dihydro-4H-pyrano[4,3-c]pyrazol-7-yl]oxy]benzoic acid], the EC50 was 1 to 2 µM.

Consider `Cc1cc2ncc(N(C)C(=O)c3cccc(-n4nc(C(F)(F)F)c5c4C(Oc4ccc(C(=O)O)cc4)COC5)c3)cn2n1` (racemic) [Compound 294, 4-[[1-[3-[Methyl-(2-methylpyrazolo[1,5-a]pyrimidin-6-yl)carbamoyl]phenyl]-3-(trifluoromethyl)-6,7-dihydro-4H-pyrano[4,3-c]pyrazol-7-yl]oxy]benzoic acid], for which the EC50 was under 1 µM.

`CN(C(=O)c1cccc(-n2nc(C(F)(F)F)c3c2C(Oc2ncc(C(=O)O)cn2)COC3)c1)c1ccc2c(c1)OC(F)(F)O2` (racemic) [Compound 295, 2-[[1-[3-[(2,2-Difluoro-1,3-benzodioxol-5-yl)-methyl-carbamoyl]phenyl]-3-(trifluoromethyl)-6,7-dihydro-4H-pyrano[4,3-c]pyrazol-7-yl]oxy]pyrimidine-5-carboxylic acid]: the half-maximal effective concentration (EC50) was 1 to 2 µM.

Regarding `CN(C(=O)c1cccc(-n2nc(C(F)(F)F)c3c2C(Oc2ncc(C(=O)O)cn2)COC3)c1)c1ccc2c(c1)OCC2` (racemic) [Compound 296, 2-[[1-[3-[2,3-Dihydrobenzofuran-6-yl(methyl)carbamoyl]phenyl]-3-(trifluoromethyl)-6,7-dihydro-4H-pyrano[4,3-c]pyrazol-7-yl]oxy]pyrimidine-5-carboxylic acid], the concentration for a half-maximal effect (EC50) is under 1 µM.
